The values that follow come from publication PMC7848789 (SLAS discovery : advancing life sciences R & D, 2019).

The target in experiment [1] is HDAC1–86b (Homo sapiens, UniProt Q13547). Description: HDAC1-86b SplitLuc CETSA in HEK293T cells. The format is binding. The following applies: for Activity outcome in SplitLuc CETSA (thermal stabilization of HDAC1–86b): 49°C, active = CRC class 1 and 2 and AUC>50.
Experiment [2] addresses Recombinant human HDAC1 enzyme (Homo sapiens, UniProt Q13547). Description: HDAC-Glo I/II enzymatic assay. The format is biochemical. The following applies: for Activity outcome in HDAC1 enzymatic HDAC-Glo I/II assay: qHTS, 11 concentrations, active = CRC class 1 and 2 and AUC>100.
Experiment [3] relates to HDAC class I and II activity in HEK293T cells. As to the kind of experiment: HDAC-Glo I/II cellular assay in HEK293T cells. The following applies: qHTS; 1 hour; active = CRC class 1 and 2 and AUC>100. The experiment is classed as cell-based.
In experiment [4] the target is HDAC1-NanoLuc fusion protein (Homo sapiens, UniProt Q13547). Description: HDAC1 NanoBRET target engagement assay in HEK293T cells. The format is binding. The following applies: for Activity outcome in NanoBRET (HDAC1 engagement, displacement of SAHA tracer): HEK293T, 28.9 μM to 0.49 nM, active = CRC class 1 and 2 and AUC>100.
Experiment [5] has as its system HDAC class I and II activity in HeLa cells. Description: HDAC-Glo I/II cellular assay in HeLa cells. The format is cell-based. The following applies: qHTS; 1 hour; active = CRC class 1 and 2 and AUC>100.

Molecules are shown by their SMILES. Where a SMILES comes first, the peptide text is derived from it.

Chain of Recombinant human HDAC1 enzyme (Q13547 whole entry): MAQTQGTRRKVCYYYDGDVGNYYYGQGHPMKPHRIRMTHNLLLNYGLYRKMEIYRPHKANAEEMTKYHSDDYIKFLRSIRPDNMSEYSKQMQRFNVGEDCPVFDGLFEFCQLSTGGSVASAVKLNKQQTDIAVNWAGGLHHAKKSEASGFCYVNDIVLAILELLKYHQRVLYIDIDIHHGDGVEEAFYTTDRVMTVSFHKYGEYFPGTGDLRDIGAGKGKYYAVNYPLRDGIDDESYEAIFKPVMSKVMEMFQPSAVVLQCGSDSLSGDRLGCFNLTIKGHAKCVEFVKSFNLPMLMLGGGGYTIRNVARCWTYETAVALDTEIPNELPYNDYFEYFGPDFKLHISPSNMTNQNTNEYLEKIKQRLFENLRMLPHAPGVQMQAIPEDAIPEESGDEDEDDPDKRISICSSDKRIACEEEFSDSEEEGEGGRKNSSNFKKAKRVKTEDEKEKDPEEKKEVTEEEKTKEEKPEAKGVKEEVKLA
Chain of HDAC1-NanoLuc fusion protein (Q13547 whole entry, the tested form may be a part): as the sequence (Q13547 whole entry) above
Chain of HDAC1–86b (Q13547 whole entry): as above

Take `O=C(CCCCC[C@@H]1NC(=O)[C@H]2CCCCN2C(=O)[C@H](Cc2ccccc2)NC(=O)[C@H](Cc2ccccc2)NC1=O)C1CO1` (stereo partly drawn) [Trapoxin A] (HELM PEPTIDE1{F.F.[O=C([C@H]1CCCCN1[*:1])[*:2]].[O=C(CCCCC[C@H](N[*:1])C(=O)[*:2])C1CO1]}$PEPTIDE1,PEPTIDE1,1:R1-4:R2$$$V2.0): the “Activity outcome in SplitLuc CETSA (thermal stabilization of HDAC1–86b)” value (shortened to “Activity outcome in SplitLuc CETSA”) in experiment [1] is reported as “most potent”. Moreover, in experiment [2], the “Activity outcome in HDAC1 enzymatic HDAC-Glo I/II assay” value was “most potent”. Moreover, the “Activity outcome in HEK293T cellular HDAC-Glo I/II assay” value in experiment [3] is listed as “most potent”.
Turning to `O=C(NO)c1ccc(CC(=O)N(CCO)c2ccccc2)cc1` [HPOB], the “Activity outcome in SplitLuc CETSA” value in experiment [1] was “did not pass the activity cutoff”. For the same compound, in experiment [2], the “Activity outcome in HDAC1 enzymatic HDAC-Glo I/II assay” value is recorded as “weak activity”. Also, the “Activity outcome in HEK293T cellular HDAC-Glo I/II assay” value in experiment [3] is listed as “weak activity”. The “Activity outcome in NanoBRET (HDAC1 engagement, displacement of SAHA tracer)” value (“Activity outcome in NanoBRET” below) in experiment [4] is on record as “did not pass the activity cutoff”.
For `Cn1cc(CNCC2CCN(c3ncc(C(=O)NO)cn3)CC2)c2ccccc21` [Quisinostat], the “Activity outcome in SplitLuc CETSA” value in experiment [1] is “most potent”. Moreover, in experiment [2], the “Activity outcome in HDAC1 enzymatic HDAC-Glo I/II assay” value was “most potent”. Moreover, the “Activity outcome in HEK293T cellular HDAC-Glo I/II assay” value in experiment [3] was “most potent”.
`CCCCNNC(=O)c1ccc(Br)cc1` [UF 010]: in experiment [1], the “Activity outcome in SplitLuc CETSA” value is on record as “did not pass the activity cutoff”. In addition, in experiment [2], the “Activity outcome in HDAC1 enzymatic HDAC-Glo I/II assay” value is on record as “weak activity”. Also, in experiment [3], the “Activity outcome in HEK293T cellular HDAC-Glo I/II assay” value is reported as “weak activity”. In experiment [4], the “Activity outcome in NanoBRET” value is recorded as “did not pass the activity cutoff”.
Take `CC(=O)Nc1ccc(C(=O)Nc2ccccc2N)cc1` [Tacedinaline]: the “Activity outcome in HDAC1 enzymatic HDAC-Glo I/II assay” value in experiment [2] is “active”. In addition, the “Activity outcome in HeLa cellular HDAC-Glo I/II assay” value in experiment [5] is “relatively weak activity (below the activity cutoff)”.
Take `N=C(N)c1ccc2cc(OC(=O)c3ccc(N=C(N)N)cc3)ccc2c1` [Nafamostat]: in experiment [1] (thermal stabilization at 49°C, n=2), the “Average IC50 ± SD (% Efficacy), SplitLuc CETSA: HEK293T” value is recorded as “Inactive”. The IC50 in experiment [2] worked out at 1.3 ± 0.1 µM; in experiment [4] it was 11.8 ± 2.9 µM. Moreover, the Emax in experiment [2] (read-out: % Efficacy, HDAC-Glo: HDAC1) is 97%; in experiment [4] (read-out: % Efficacy, NanoBRET: HEK293T) it was 37%. Besides, in experiment [4], the “Activity outcome in NanoBRET” value is given as “weakly engage HDAC1”.
For `O=C(CCCCCCC(=O)Nc1ccc([C@H]2O[C@@H](CSc3nc(-c4ccccc4)c(-c4ccccc4)o3)C[C@@H](c3ccc(CO)cc3)O2)cc1)NO` [Tubacin], in experiment [1], the “Activity outcome in SplitLuc CETSA” value was “did not pass the activity cutoff”. The “Activity outcome in HDAC1 enzymatic HDAC-Glo I/II assay” value in experiment [2] is “weak activity”. Besides, the “Activity outcome in HEK293T cellular HDAC-Glo I/II assay” value in experiment [3] is listed as “weak activity”. The “Activity outcome in NanoBRET” value in experiment [4] was “did not pass the activity cutoff”.
Regarding `COc1ccc(-c2nc(N3CCOCC3)c3sc(CN(C)c4ncc(C(=O)NO)cn4)cc3n2)cn1` [CUDC-907], the “Activity outcome in SplitLuc CETSA” value in experiment [1] is listed as “most potent”. Moreover, the “Activity outcome in HDAC1 enzymatic HDAC-Glo I/II assay” value in experiment [2] is given as “most potent”. Further, in experiment [3], the “Activity outcome in HEK293T cellular HDAC-Glo I/II assay” value is listed as “most potent”.
Turning to `CN1CCc2c(c3ccccc3n2Cc2ccc(C(=O)NO)cc2)C1` [Tubastatin A], in experiment [1], the “Activity outcome in SplitLuc CETSA” value is “inactive”. The “Activity outcome in HDAC1 enzymatic HDAC-Glo I/II assay” value in experiment [2] is given as “weak activity”. In addition, in experiment [3], the “Activity outcome in HEK293T cellular HDAC-Glo I/II assay” value is “weak activity”. Besides, in experiment [4], the “Activity outcome in NanoBRET” value was “inactive”.
On to `CCC(=O)CCCCC[C@@H]1NC(=O)[C@H]2CCCCN2C(=O)[C@H]([C@@H](C)CC)NC(=O)[C@H](Cc2cn(OC)c3ccccc23)NC1=O` [Apicidin], for which the “Activity outcome in SplitLuc CETSA” value in experiment [1] is given as “most potent”. The “Activity outcome in HDAC1 enzymatic HDAC-Glo I/II assay” value in experiment [2] is listed as “most potent”. In addition, in experiment [3], the “Activity outcome in HEK293T cellular HDAC-Glo I/II assay” value was “most potent”.
